For assay [1], the system named is spontaneous recurrent seizures. The experiment in a line: SE-induced epilepsy: spontaneous recurrent seizures by video-EEG after 3 days of treatment following KA-SE. To be noted: for animals with initial spontaneous seizure within 3 days following SE: 10 mg/kg i.v. x3, n=8; for number of spontaneous seizures: n=8, mean±SEM; for spontaneous recurrent seizures per animal (range): for pY816 the six animals with seizures. It counts as in vivo, mouse. Here is the method: Surgery and microinfusion studies provided in Examples 10-14 were performed as described here. Surgery and microinfusion of KA into right amygdala of adult mice was performed as previously described (Liu, G. et al., (2013) Neuron 79:31-38). Briefly, mice were anesthetized with pentobarbital (60 mg/kg, intraperitoneally [i.p.]) and placed in a stereotaxic frame. A guide cannula was stereotactically placed above the right amygdala (coordinates from bregma: AP=−1.2 mm; ML=3.0 mm). A bipolar electrode was placed in the left dorsal hippocampus (coordinates from bregma: AP=−2.0 mm; ML=−1.6 mm; DV=−1.5 mm). A ground electrode connected to a screw was placed in the skull above the cerebellum. After a postoperative recovery period of 7 days, the animal was gently restrained and an infusion cannula was inserted into the right amygdala through the guide cannula at the depth of 3.7 mm below dura. Either KA (0.3 μg in 0.5 μl PBS) or vehicle control (0.5 μl of PBS) was infused into the right basolateral amygdala at the rate of 0.11 μl per minute. The infusion cannula was left in the right amygdala for two additional minutes before being withdrawn from the guide cannula. Animals were housed individually for time locked electroencephalogram (EEG) telemetry and video monitoring with food and water ad libitum.
Emergence of SE was typically evident in EEG recordings 5-10 min after KA infusion. The behavioral seizures associated with electrographic seizures typically consisted of immobility, followed by facial automatisms, unilateral or bilateral forelimb clonus, and whole body clonus. Tonic-clonic seizures with loss of posture and jumping also occurred during the seizures (Mouri, G. et al., (2008) Brain Res 1213:140-151). For experiments in which p816 or Scr was administered prior to SE, mice were monitored for 45 min following KA infusion. EEG patterns consistent with electrographic SE included any of the following: 1. discrete electrographic seizures; 2. waxing and waning epileptiform activity; 3. continuous, high amplitude, rapid spiking; 4. periodic epileptiform discharges on a relatively flat background as described by Treiman, D. M. et al., (1990) Epilepsy Res 5:49-60 and Walton, et. al., (1988) Exp Neurol 101:267-275. Behavioral patterns consistent with seizures included Classes 3-6 as described in the following section (Racine, R. J. (1972) Electroencephalogr Clin Neurophysiol 32:281-294; Borges, K. et al., (2003) Exp Neurol 182:21-34). The duration of behavioral and electrographic SE were determined by analyses of video and EEG data by trained observers blinded to treatment of mice. A similar method was used in experiments examining effects of mutations (trkB^PLC/PLC and PLCγ1^+/−) on SE induced by KA. For experiments in which p816 or Scr was administered following SE, diazepam (10 mg/kg, i.p.) was administered 40 minutes after the onset of SE followed by lorazepam (6 mg/kg, i.p.) one hour later to suppress SE and limit the mortality and morbidity of this model. Animals underwent continuous video-EEG monitoring 24 hr per day, 7 days per week for first two weeks post-SE (day 1-14). At the end of the second week post-SE, monitoring was discontinued and animals were returned to home cages. After a two-week interval, monitoring was resumed for an additional two weeks (day 29-42). Spontaneous recurrent seizures were identified by review of video-EEG files by independently by each of two trained readers blinded to treatment of mice. The consistency of identifying SRS between readers was ˜90%; in instances in which readers disagreed, the events were excluded from this study. SRS was defined electrographically as high frequency (>5 Hz), high amplitude (>2×baseline) rhythmic epileptiform activity with a minimal duration of 5 s and behaviorally with video-monitoring (see behavioral-seizure scoring). […]

For the next assay, the system named is Akt. Put plainly: BDNF-mediated increase of p-Akt in cultured cortical neurons (western blot). It counts as cell-based, rat. To be noted: 10 μM, 10-120 min pretreatment. On the technique in general: Immunoblotting shows a protein as a band on a membrane.
Assay [2] deals with hippocampal neurons (CA3b). The experiment in a line: NeuN and GFAP immunostaining of hippocampal CA3b 10 weeks after SE. The class given is in vivo, mouse. The source says: Neurons and astrocytes were visualized using antibodies against neuronal nuclei (mouse monoclonal to NeuN, 1:500; Millipore) and glial fibrillary acidic protein (rabbit polyclonal to GFAP, 1:1000; Sigma) detected with Alexafluor 488 coupled anti-mouse and Alexafluor 594 coupled anti-rabbit secondary antibodies (Molecular Probes), respectively. Images were captured using a Leica TCS SL confocal microscopy system equipped with a 63× oil-immersion objective lens. NeuN-positive cell counting was performed by an investigator blinded to the genotype and treatment conditions with ImageJ software (Ferreira, T. et al., (2011). The Image J User Guide) in a 260×260 μm field within the CA3b pyramidal cell layer. Mean counts were obtained from two adjacent rostral and two adjacent middle hippocampal sections ipsilateral to the infused amygdala.
Ten weeks following SE, mice were anesthetized with pentobarbital (200 mg/kg, i.p.) and underwent intra-cardiac perfusion with PBS containing heparin (5 U/ml) followed by 4% paraformaldehyde. Brains were removed, frozen by slow immersion in isopentane chilled in dry ice, cryoprotected, and sectioned. Serial 40 μm coronal sections were cut through the forebrain spanning the entire hippocampus. Adjacent sections at two levels relative to bregma (˜1.68 mm posterior designated “rostral”) or (˜2.32 mm posterior designated “middle”) were stained for NeuN and GFAP as previously described (Mouri, G. et al., (2008) Brain Res 1213:140-151) and mean counts of NeuN positive cells were obtained from two adjacent rostral and two adjacent middle hippocampal sections ipsilateral to the infused amygdala by an observer blinded to treatment.

Where no end group is shown, it is not given here. [ ]: non-standard residue; d: D form. pY = N[C@@H](Cc1ccc(OP(=O)(O)O)cc1)C(=O)O

Regarding “YGRKKRRQRRR-LQNLAKASPVpYLDI (YGRKKRRQRRRLQNLAKASPV[pY]LDI) [pY816]”, in assay [1] (10 mg/kg i.v. immediately, 24 hr and 48 hr after SE, compared to control), the “latency to the onset of the first spontaneous seizure” value is on record as “delayed”. Further, in assay [1], the “animals with initial spontaneous seizure within 3 days following SE” value is “single”. Also, in assay [1] (days 1-14 after SE), the “reduction in the number of spontaneous seizures compared to Scr” value is recorded as 86% and the “number of spontaneous seizures” value was 2.4±0.6. Further, in assay [1] (days 29-42 after SE), the “reduction in the number of spontaneous seizures compared to Scr” value is recorded as 90%, the “number of spontaneous seizures” value is given as 1.5±0.4 and the “spontaneous recurrent seizures per animal (range)” value is reported as 1-3 seizures. Moreover, the “animals that exhibited no seizures” value in assay [1] (days 29-42 after SE, of eight treated) was “two”. Also, the “BDNF-mediated increase of the p-Akt/Akt ratio (quantified, FIG. 11)” value in the assay on Akt is “Neither the Phospho-Tat-TrkBY816 nor the Scr-phospho-Tat-TrkBY816 peptide inhibited”. Also, the “reactive gliosis (enlarged GFAP-immunoreactive cells) in CA3b” value in assay [2] is given as “attenuated”. In assay [2] (compared to Scr treatment), the “reduction of neuron loss” value was roughly 30%.
With “YGRKKRRQRRRLVApYQLKIAPNDLS (YGRKKRRQRRRLVA[pY]QLKIAPNDLS) [Scr, reference compound]”, the “animals with initial spontaneous seizure within 3 days following SE” value in assay [1] is given as 5 of 8. In addition, the “number of spontaneous seizures” value came to 18.1±1.7 in assay [1] (days 1-14 after SE) and 16.5±3.5 in assay [1] (days 29-42 after SE). Moreover, the “spontaneous recurrent seizures per animal (range)” value in assay [1] (days 29-42 after SE) was 7-36 seizures. In the assay on Akt, the “BDNF-mediated increase of the p-Akt/Akt ratio (quantified, FIG. 11)” value is “Neither the Phospho-Tat-TrkBY816 nor the Scr-phospho-Tat-TrkBY816 peptide inhibited”. The “reduction of neurons (NeuN immunoreactive cells) in CA3b hippocampus” value in assay [2] (compared to PBS-infused controls) is on record as roughly 50%.

The values are drawn from patent publication US11129870B2, “Compositions and methods for uncoupling TrkB receptor from PLC gamma 1 for the treatment of epilepsy and anxiety-like disorder” (DUKE UNIVERSITY, priority 2010, dated 2021).
